We go through 16 molecules from patent US11492335B2, “Aryl or heteroaryl triazolone derivatives or salts thereof, or pharmaceutical compositions comprising the same” (YUHAN CORPORATION, priority 2018, dated 2022).

The structures appear in SMILES notation. Where a name gives a salt, the structure may show the parent alone. Read-outs that look alike come from different tables or passages of the source.

In one test the target is T1, recombinant human VAP-1 (Homo sapiens, UniProt Q16853).
T1 construct: purchased R&D systems
T1 sequence (Q16853 1-763): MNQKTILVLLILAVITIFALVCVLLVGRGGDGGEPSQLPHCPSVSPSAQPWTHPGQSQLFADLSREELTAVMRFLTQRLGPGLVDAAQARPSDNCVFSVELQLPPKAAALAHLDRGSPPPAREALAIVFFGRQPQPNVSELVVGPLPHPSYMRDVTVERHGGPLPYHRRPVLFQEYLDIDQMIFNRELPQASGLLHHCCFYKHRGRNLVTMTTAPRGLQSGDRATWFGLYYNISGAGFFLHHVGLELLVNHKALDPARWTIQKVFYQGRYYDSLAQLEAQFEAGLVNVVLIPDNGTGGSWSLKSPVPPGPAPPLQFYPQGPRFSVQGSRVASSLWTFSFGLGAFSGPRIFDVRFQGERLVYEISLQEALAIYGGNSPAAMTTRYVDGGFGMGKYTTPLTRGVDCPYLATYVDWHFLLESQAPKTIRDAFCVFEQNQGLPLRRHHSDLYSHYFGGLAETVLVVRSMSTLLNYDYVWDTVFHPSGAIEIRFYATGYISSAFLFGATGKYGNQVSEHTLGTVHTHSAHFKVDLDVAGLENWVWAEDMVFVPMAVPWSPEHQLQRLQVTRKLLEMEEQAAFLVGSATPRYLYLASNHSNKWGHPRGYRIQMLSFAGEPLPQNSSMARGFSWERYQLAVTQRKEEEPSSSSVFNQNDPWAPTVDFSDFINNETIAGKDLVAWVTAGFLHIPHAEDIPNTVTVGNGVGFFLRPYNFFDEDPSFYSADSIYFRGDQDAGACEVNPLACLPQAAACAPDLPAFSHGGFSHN
The test can be described thus: Activity on recombinant human VAP-1, Amplex Red HRP-coupled hydrogen peroxide assay, benzylamine substrate. Format: biochemical. The following applies: recombinant human VAP-1, benzylamine substrate, read-out: Inhibitory Activity (IC50, nM) human VAP-1. The protocol: (§1) The compounds according to the present technology were evaluated in terms of activity on recombinant human VAP-1 (R&D systems) by measuring the level of hydrogen peroxide in horseradish peroxidase (HRP)-coupled reaction using Amplex Red Hydrogen Peroxide Assay Kit (Molecular Probes, Invitrogen, USA). The experiment was carried out at room temperature using benzylamine as a substrate. In the HRP-coupled reaction, hydrogen peroxide oxidation of 10-acetyl-3,7-dihydroxyphenoxazine (Amplex Red reagent) produces resorufin, which is a highly fluorescent compound. Briefly, the test compound was dissolved in dimethyl sulfoxide (DMSO) at a concentration of 20 mM. The dose-response assessment was made by 1:3 serial dilution in DMSO, thereby creating an 8 point curve. The concentration of the upper part was controlled according to the efficacy of the compounds, followed by dilution with a reaction buffer solution to obtain a final DMSO concentration less than 1%. To each well of a 96 black well plate, human VAP-1 purified in 50 mM sodium phosphate buffer solution (pH7.4) was added. The test compounds dissolved in DMSO were incubated with the human VAP-1 enzymes at 37° C. for 30 minutes. After 30-minute incubation, each well is added with a reaction mixture containing 200 uM Amplex Red reagent prepared from 50 mM sodium phosphate buffer solution (pH 7.4), 1 mM benzylamine, and 1 U/mL HRP. Fluorescence intensity was measured at several time points during 1-2 hours using a microplate reader (Flexstation3, Molecular Devices) under the wavelength condition exciting at 544 nm and reading the emission at 590 nm. The inhibitory effect of the compounds was measured as a decrease (%) in the signal rate as compared to the control group without any inhibitor (only diluted DMSO). Data was fixed to a logistic model with four variables and IC50 value was calculated using GraphPad Prism program.

In test [1] the target is T2, recombinant human DAO (diamine oxidase) (Homo sapiens, UniProt P19801).
T2 construct: purchased R&D systems
T2 sequence (P19801 20-751): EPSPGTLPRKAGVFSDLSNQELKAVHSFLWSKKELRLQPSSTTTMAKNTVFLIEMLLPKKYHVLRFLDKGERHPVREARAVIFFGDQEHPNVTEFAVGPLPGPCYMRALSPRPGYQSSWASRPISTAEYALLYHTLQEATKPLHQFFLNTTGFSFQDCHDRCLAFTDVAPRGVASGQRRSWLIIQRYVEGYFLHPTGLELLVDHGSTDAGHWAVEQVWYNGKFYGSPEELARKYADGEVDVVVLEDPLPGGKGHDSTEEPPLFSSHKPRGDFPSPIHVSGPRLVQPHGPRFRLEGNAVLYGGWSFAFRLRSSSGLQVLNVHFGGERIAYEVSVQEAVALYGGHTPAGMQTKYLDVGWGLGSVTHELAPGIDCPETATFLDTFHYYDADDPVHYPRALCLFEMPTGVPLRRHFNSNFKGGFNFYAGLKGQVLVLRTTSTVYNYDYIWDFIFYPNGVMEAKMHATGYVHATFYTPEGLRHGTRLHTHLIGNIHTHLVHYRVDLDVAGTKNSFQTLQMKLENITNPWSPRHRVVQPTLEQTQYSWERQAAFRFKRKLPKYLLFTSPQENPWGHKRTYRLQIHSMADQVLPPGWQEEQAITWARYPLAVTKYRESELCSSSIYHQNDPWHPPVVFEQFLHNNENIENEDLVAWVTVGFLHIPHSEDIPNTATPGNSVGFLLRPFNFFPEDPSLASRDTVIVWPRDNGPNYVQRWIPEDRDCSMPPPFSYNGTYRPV
The test is described as follows: Activity on recombinant human DAO, Amplex Red method, 1 mM putrescine substrate. Format: biochemical. The note with it: recombinant human DAO, 1 mM putrescine; * = between 10 and 100 nM, ** = between 300 and 1000 nM; read-out: Inhibitory Activity (IC50, nM) DAO. The protocol:
as §1
In addition, the compounds according to the present technology were evaluated in terms of activity on a recombinant human MAO-A (monoamine oxidase-A, Sigma-Aldrich) and a recombinant human MAO-B (monoamine oxidase-B, Sigma-Aldrich) by using as substrates, 0.5 mM tyramine and 1 mM benzylamine, respectively, with a method similar to the activity evaluation method for recombinant human VAP-1. The compounds according to the present technology were also evaluated in terms of activity on a recombinant human DAO (diamine oxidase, R&D systems) by using as a substrate 1 mM putrescine with a method similar to the activity evaluation method for recombinant human VAP-1.

Turning to `NC/C(=C/F)Cn1ncn(-c2ccc(Br)cc2)c1=O` [Example 1, 2-[(2Z)-2-(aminomethyl)-3-fluoroprop-2-en-1-yl]-4-(4-bromophenyl)-2,4-dihydro-3H-1,2,4-triazol-3-one], the IC50 at recombinant human VAP-1 (30 min preincubation at 37° C.) was 17 nM.

For `Cc1cc(Br)ncc1-n1cnn(C/C(=C/F)CN)c1=O` [Example 28, 2-[(2E)-2-(aminomethyl)-3-fluoroprop-2-en-1-yl]-4-(6-bromo-4-methylpyridin-3-yl)-2,4-dihydro-3H-1,2,4-triazol-3-one hydrochloride], the IC50 in test [1] is 1100 nM; on recombinant human VAP-1 (30 min preincubation at 37° C.), 45 nM.

Turning to `Cc1cc(Br)cnc1-n1cnn(C/C(=C\F)CN)c1=O` [Example 31, 2-[(2Z)-2-(aminomethyl)-3-fluoroprop-2-en-1-yl]-4-(5-bromo-3-methylpyridin-2-yl)-2,4-dihydro-3H-1,2,4-triazol-3-one hydrochloride], the IC50 at recombinant human VAP-1 (30 min preincubation at 37° C.) is 47 nM.

Turning to `Cc1cc(-n2cnn(C/C(=C\F)CN)c2=O)ncc1Br` [Example 33, 2-[(2Z)-2-(aminomethyl)-3-fluoroprop-2-en-1-yl]-4-(5-bromo-4-methylpyridin-2-yl)-2,4-dihydro-3H-1,2,4-triazol-3-one hydrochloride], on recombinant human VAP-1 (30 min preincubation at 37° C.), the IC50 turned out to be 31 nM.

`COc1cc(N2CCOCC2)c(Br)cc1-n1cnn(C/C(=C/F)CN)c1=O` [Example 47, 2-[(2E)-2-(aminomethyl)-3-fluoroprop-2-en-1-yl]-4-[5-bromo-2-methoxy-4-(morpholin-4-yl)phenyl]-2,4-dihydro-3H-1,2,4-triazol-3-one hydrochloride]: the IC50 in test [1] turned out to be 1200 nM; at recombinant human VAP-1 (30 min preincubation at 37° C.), 2.8 nM.

Consider `CS(=O)(=O)c1ccc(-c2cccc(-n3cnn(C/C(=C\F)CN)c3=O)c2)cc1` [Example 53, 2-[(2Z)-2-(aminomethyl)-3-fluoroprop-2-en-1-yl]-4-[4′-(methylsulfonyl)biphenyl-3-yl]-2,4-dihydro-3H-1,2,4-triazol-3-one hydrochloride], for which the figures for the concentration for half-maximal inhibition (IC50) (in test [1]; on recombinant human VAP-1 (30 min preincubation at 37° C.)) were less than 30 nM and 2.5 nM, respectively.

`NC/C(=C/F)Cn1ncn(-c2cccc(-c3cccc(-c4nnc[nH]4)c3)c2)c1=O` [Example 60, 2-[(2Z)-2-(aminomethyl)-3-fluoroprop-2-en-1-yl]-4-[3′-(4H-1,2,4-triazol-3-yl)biphenyl-3-yl]-2,4-dihydro-3H-1,2,4-triazol-3-one]: the IC50 was less than 100 nM in test [1] and 1.3 nM on recombinant human VAP-1 (30 min preincubation at 37° C.).

Consider `Cc1ncc(-c2cccc(-n3cnn(C/C(=C/F)CN)c3=O)c2)cn1` [Example 91, 2-[(2E)-2-(aminomethyl)-3-fluoroprop-2-en-1-yl]-4-[3-(2-methylpyrimidin-5-yl)phenyl]-2,4-dihydro-3H-1,2,4-triazol-3-one hydrochloride], for which the 50% inhibitory concentration (IC50) in test [1] turned out to be 13 nM; at recombinant human VAP-1 (30 min preincubation at 37° C.), 1.5 nM.

As to `NC/C(=C\F)Cn1ncn(-c2cccc(-c3cncc4ccccc34)c2)c1=O` [Example 104, 2-[(2E)-2-(aminomethyl)-3-fluoroprop-2-en-1-yl]-4-[3-(isoquinolin-4-yl)phenyl]-2,4-dihydro-3H-1,2,4-triazol-3-one hydrochloride], the half-maximal inhibitory concentration (IC50) came to 54 nM in test [1] and 3 nM on recombinant human VAP-1 (30 min preincubation at 37° C.).

For `CC(=O)Nc1cc(-c2cccc(-n3cnn(C/C(=C/F)CN)c3=O)c2C)ccn1` [Example 109, N-[4-(3-{1-[(2E)-2-(aminomethyl)-3-fluoroprop-2-en-1-yl]-5-oxo-1,5-dihydro-4H-1,2,4-triazol-4-yl}-2-methylphenyl)pyridin-2-yl]acetamide], the results for the IC50 (in test [1]; at recombinant human VAP-1 (30 min preincubation at 37° C.)) were 740 nM and 8.1 nM, respectively.

`Cc1c(-c2ccc3nonc3c2)cccc1-n1cnn(C/C(=C/F)CN)c1=O` [Example 113, 2-[(2E)-2-(aminomethyl)-3-fluoroprop-2-en-1-yl]-4-[3-(2,1,3-benzooxadiazol-5-yl)-2-methylphenyl]-2,4-dihydro-3H-1,2,4-triazol-3-one]: the IC50 is less than 1000 nM in test [1] and 2.3 nM at recombinant human VAP-1 (30 min preincubation at 37° C.).

For the molecule `Cc1cc(-c2ccc(S(C)(=O)=O)cc2)ncc1-n1cnn(C/C(=C/F)CN)c1=O` [Example 119, 2-[(2E)-2-(aminomethyl)-3-fluoroprop-2-en-1-yl]-4-{4-methyl-6-[4-(methylsulfonyl)phenyl]pyridin-3-yl}-2,4-dihydro-3H-1,2,4-triazol-3-one], the concentration for half-maximal inhibition (IC50) was less than 100 nM in test [1] and 0.94 nM at recombinant human VAP-1 (30 min preincubation at 37° C.).

On to `Cc1cc(-c2cccc(-c3nc[nH]n3)c2)ncc1-n1cnn(C/C(=C/F)CN)c1=O` [Example 122, 2-[(2E)-2-(aminomethyl)-3-fluoroprop-2-en-1-yl]-4-{4-methyl-6-[3-(1H-1,2,4-triazol-3-yl)phenyl]pyridin-3-yl}-2,4-dihydro-3H-1,2,4-triazol-3-one], for which the IC50 in test [1] is less than 100 nM; at recombinant human VAP-1 (30 min preincubation at 37° C.), 0.77 nM.

With `Cc1cc(-c2ccc3nonc3c2)ncc1-n1cnn(C/C(=C/F)CN)c1=O` [Example 125, 2-[(2E)-2-(aminomethyl)-3-fluoroprop-2-en-1-yl]-4-[6-(2,1,3-benzooxadiazol-5-yl)-4-methylpyridin-3-yl]-2,4-dihydro-3H-1,2,4-triazol-3-one], the IC50 in test [1] is less than 100 nM; on recombinant human VAP-1 (30 min preincubation at 37° C.), 1.2 nM.

Turning to `CC(=O)Nc1nc2cc(-c3cc(C)c(-n4cnn(C/C(=C/F)CN)c4=O)cn3)ccc2s1` [Example 128, N-[5-(5-{1-[(2E)-2-(aminomethyl)-3-fluoroprop-2-en-1-yl]-5-oxo-1,5-dihydro-4H-1,2,4-triazol-4-yl}-4-methylpyridin-2-yl)-1,3-benzothiazol-2-yl]acetamide], the results for the IC50 (in test [1]; at recombinant human VAP-1 (30 min preincubation at 37° C.)) were less than 100 nM and 0.82 nM, respectively.

As to `NC/C(=C\F)Cn1ncn(-c2cccc(-c3ccc(-c4noc(=O)[nH]4)cc3)n2)c1=O` [Example 182, 3-[4-(6-{1-[(2E)-2-(aminomethyl)-3-fluoroprop-2-en-1-yl]-5-oxo-1,5-dihydro-4H-1,2,4-triazol-4-yl}pyridin-2-yl)phenyl]-1,2,4-oxadiazol-5(4H)-one hydrochloride], the IC50 at recombinant human VAP-1 is 23 nM.

By IC50 is commonly meant the point on the concentration scale where inhibition reaches its midpoint.
